Experimental data reported in US8980877B2, “Spirocyclic derivatives as histone deacetylase inhibitors” (DAC S.R.L., priority 2008, dated 2015).

Legend:
[1] = test system: HDAC (nuclear fraction of Hela cells); assay: Assay of enzyme inhibition of HDAC (BIOMOL Kit); type: biochemical; settings: substrate 200 μM, 15 min at RT, fluorescence
Method: The in-vitro activity of HDAC inhibitors was assayed using a BIOMOL Kit, according to the instructions from the manufacturer (Biomolecular Research Laborator). 15 μl of 30× diluted nuclear fraction of Hela cells, was diluted to 50 μl with the assay buffer containing the HDAC inhibitor and the substrate (lysine with acetylated amino group on the side chain) at a concentration of 200 μM. The samples were incubated for 15 min at RT and then exposed to a developer (10 min at RT). In this last step a fluorophore was produced, whose fluorescence was measured using an excitation wavelength of 355 nm and an emission at 460 nm. The IC50 was calculated using GraphPad Software.

K562 cells = assay: Cell growth, CellTiter-Glo Luminescent Cell Viability Assay, K562; type: cell-based; settings: Homo sapiens, 72 h incubation, read-out: K562 (antiproliferative assay IC50)
Source text: (§1) CellTiter-Glo® Luminescent Cell Viability Assay (Promega) is a homogeneous method of determining the number of viable cells in culture based on quantitation of the present ATP, which indicates the presence of metabolically active cells. The homogeneous assay procedure involves addition of a single reagent (CellTiter-Glo® Reagent) directly to the cells, which leads to cell lysis and generation of a luminescent signal proportional to the amount of the ATP and the number of cells present in culture. The assay relies on the properties of a proprietary thermostable luciferase (Ultra-Glo® recombinant luciferase), which generates a luminescent signal.
(§2) K562, A549, and HCT-116 cells, in exponential growth, were incubated for 72 h with different concentrations of the inhibitors. After 72 h, a volume of CellTiter-Glo® Reagent equal to the volume of cell culture medium was added. The content was mixed for 2 min to induce cell lysis. The luminescence was recorded after further 10 min at RT in order to obtain a stable luminescent signal.
(§3) The IC50 was calculated using GraphPad Software.

HCT-116 cells = assay: Cell growth, CellTiter-Glo Luminescent Cell Viability Assay, HCT-116; type: cell-based; settings: Homo sapiens, 72 h incubation, read-out: HCT116 (antiproliferative assay IC50)
Source text: as §1, §2, §3

A549 cells = assay: Cell growth, CellTiter-Glo Luminescent Cell Viability Assay, A549; type: cell-based; settings: Homo sapiens, 72 h incubation, read-out: A549 (antiproliferative assay IC50)
Source text: as §1, §2, §3

| IC50 [1] | SMILES | also measured |
| --- | --- | --- |
| ≤ 100 nM | O=C(/C=C/c1ccc2c(c1)C(=O)NC1(CCCN(Cc3ccccc3)C1)O2)NO (racemic) [Example 40, (±)-(E)-3-{1′-Benzyl-3,4-dihydro-4-oxo-spiro[2H-(1,3)-benzoxazine-2,3′-piperidin]-6-yl}-N-hydroxy-acrylamide] | – |
| ≤ 100 nM | O=C(/C=C/c1ccc2c(c1)C(=O)CC1(CN(C(=O)c3ccccc3)C1)O2)NO [Example 37, (E)-3-[1′-Benzoyl-4-oxo-spiro(chromane-2,3′-azetidine)-6-yl]-N-hydroxy-acrylamide] | – |
| ≤ 100 nM | O=C(/C=C/c1ccc2c(c1)C(=O)CC1(CCCN(CCc3ccccc3)C1)O2)NO (racemic) [Example 20, (±)-(E)-3-[1′-(2-Phenyl-ethyl)-4-oxo-spiro(chromane-2,3′-piperidine)-6-yl]-N-hydroxy-acrylamide] | – |
| ≤ 100 nM | O=C(/C=C/c1ccc2c(c1)C(=O)CC1(CCN(CCc3ccccc3)C1)O2)NO (racemic) [Example 9, (±)-(E)-3-[1′-(2-Phenyl-ethyl)-4-oxo-spiro(chromane-2,3′-pyrrolidine)-6-yl]-N-hydroxy-acrylamide] | – |
| 100 to 1000 nM | O=C(/C=C/c1ccc2c(c1)C(=O)CC1(CCCN(Cc3ccccc3)C1)O2)NO (single isomer, unassigned; (+)) [Example 18, (+)-(E)-3-[1′-Benzyl-4-oxo-spiro(chromane-2,3′-piperidine)-6-yl]-N-hydroxy-acrylamide] | – |
| ≤ 100 nM | O=C(/C=C/c1ccc2c(c1)C(=O)CC1(CCCN(Cc3ccccc3)C1)O2)NO (single isomer, unassigned; (-)) [Example 17, (−)-(E)-3-[1′-Benzyl-4-oxo-spiro(chromane-2,3′-piperidine)-6-yl]-N-hydroxy-acrylamide] | – |
| ≥ 1000 nM | O=C(/C=C/c1ccc2c(c1)/C(=N\OCc1ccccc1)CC1(CCCN(CCc3ccccc3)C1)O2)NO (centres unmarked) [Example 55, (E)-3-(4-(Benzyloxyimino)-1′-phenethylspiro[chroman-2,3′-piperidine]-6-yl)-N-hydroxyacrylamide] | IC50 (K562 cells): ≤ 1000 nM; IC50 (HCT-116 cells): ≤ 1000 nM; IC50 (A549 cells): 1000 to 3000 nM |
| ≤ 100 nM | O=C(/C=C/c1ccc2c(c1)C(=O)CC1(CCCN(Cc3ccccc3)C1)O2)NO (racemic) [Example 13, (±)-(E)-3-[1′Benzyl-4-oxo-spiro(chromane-2,3′-piperidine)-6-yl]-N-hydroxy-acrylamide] | – |
| ≤ 100 nM | Cn1cc(CN2CCC3(CC(=O)c4cc(/C=C/C(=O)NO)ccc4O3)C2)c2ccccc21 (racemic) [Example 10, (±)-(E)-3-[1′(1-Methyl-1H-indol-3-ylmethyl)-4-oxo-spiro(chromane-2,3′-pyrrolidine)-6-yl]-N-hydroxy-acrylamide] | – |
| ≤ 100 nM | O=C(/C=C/c1ccc2c(c1)C(=O)CC1(CCCN(Cc3ccccc3)CC1)O2)NO (racemic) [Example 23, (±)-(E)-3-[1′-Benzyl-4-oxo-spiro(chromane-2,4′-azepane)-6-yl]-N-hydroxy-acrylamide] | – |
| ≤ 100 nM | O=C(/C=C/c1ccc2c(c1)C(=O)CC1(CN(Cc3ccccc3)C1)O2)NO [Example 31, (E)-3-[1′-Benzyl-4-oxo-spiro(chromane-2,3′-azetidine)-6-yl]-N-hydroxy-acrylamide] | – |
| ≤ 100 nM | O=C(/C=C/c1ccc2c(c1)C(=NO)CC1(CCCN(C3CCCC3)C1)O2)NO (centres unmarked) [Example 54, (E)-3-(1′-Cyclopentyl-4-(hydroxyimino)spiro[chroman-2,3′-piperidine]-6-yl)-N-hydroxyacrylamide] | – |
| ≥ 1000 nM | CO/N=C1/CC2(CCCN(Cc3ccc(F)cc3)C2)Oc2ccc(/C=C/C(=O)NO)cc21 (centres unmarked) [Example 53, (E)-3-(1′-(4-Fluorobenzyl)-4-(methoxyimino)spiro[chroman-2,3′-piperidine]-6-yl)-N-hydroxyacrylamide] | IC50 (K562 cells): 1000 to 3000 nM; IC50 (HCT-116 cells): 1000 to 3000 nM; IC50 (A549 cells): ≥ 3000 nM |
| ≤ 100 nM | O=C(/C=C/c1ccc2c(c1)C(=O)CC1(CCN(Cc3ccccc3)C1)O2)NO (single isomer, unassigned; (-)) [Example 3, (−)-(E)-3-[1′-Benzyl-4-oxo-spiro(chromane-2,3′-pyrrolidine)-6-yl]-N-hydroxy-acrylamide] | – |
| ≤ 100 nM | O=C(/C=C/c1ccc2c(c1)C(=O)CC1(CCN(Cc3ccccc3)C1)O2)NO (racemic) [Example 2, (±)-(E)-3-[1′-Benzyl-4-oxo-spiro(chromane-2,3′-pyrrolidine)-6-yl]-N-hydroxy-acrylamide] | – |
| ≤ 100 nM | O=C(/C=C/c1ccc2c(c1)C(=O)CC1(CCCN(Cc3ccc(F)cc3)C1)O2)NO (racemic) [Example 19, (±)-(E)-3-[1′(4-Fluoro-benzyl)-4-oxo-spiro(chromane-2,3′-piperidine)-6-yl]-N-hydroxy-acrylamide] | – |
| ≤ 100 nM | Cn1cc(CN2CC3(CC(=O)c4cc(/C=C/C(=O)NO)ccc4O3)C2)c2ccccc21 [Example 44, (E)-3-[1′-(1-Methyl-1H-indol-3-ylmethyl)-4-oxo-spiro(chromane-2,3′-azetidine)-6-yl]-N-hydroxy-acrylamide] | – |
| ≤ 100 nM | O=C(/C=C/c1ccc2c(c1)C(=O)CC1(CCCN(CCc3ccccc3)CC1)O2)NO (racemic) [Example 28, (±)-(E)-3-[1′(2-Phenyl-ethyl)-4-oxo-spiro(chromane-2,4′-azepane)-6-yl]-N-hydroxy-acrylamide] | – |
| ≤ 100 nM | O=C(/C=C/c1ccc2c(c1)C(=O)CC1(CCCN(C3CCCC3)C1)O2)NO (racemic) [Example 50, (±)-(E)-3-[1′-Cyclopentyl-4-oxo-spiro(chromane-2,3′-piperidine)-6-yl]-N-hydroxy-acrylamide] | – |
| ≤ 100 nM | O=C(/C=C/c1ccc2c(c1)C(=O)NC1(CCCN(CCc3ccccc3)C1)O2)NO (racemic) [Example 43, (±)-(E)-3-{1′-(2-Phenyl-ethyl)-3,4-dihydro-4-oxo-spiro[2H-(1,3)-benzoxazine-2,3′-piperidin]-6-yl}-N-hydroxy-acrylamide] | – |
